Patent US4123456A, “Novel 11-hydroxy-9-keto-5,6-cis-13,14-cis-prostadienoic acid derivatives” (American Cyanamid Company, priority 1977, dated 1978)

What was measured:
[1] = tested on: ulcerogenic properties of indomethacin; test: protection against the ulcerogenic properties of indomethacin; format: in vivo, Rats; conditions: 2.5 or lower considered active
Method: The compounds of this invention provide protection against the ulcerogenic properties of indomethacin. This assay was carried out in the following manner.
Rats were starved for 48 hours (water was given ad libitum). Indomethacin (20 mg./kg. of body weight) was administered by the subutaneous route and one-half the dose of the test compound was administered by gavage at the same time. After 3 hours, the second half of the test compound was administered also by Gavage. Five hours after the administration of indomethacin the animals were decapitated and the stomachs removed. The stomachs were washed with distilled water, blotted on gauze, cut along the larger curvature, and the contents rinsed with distilled water. The stomachs were spread out, pinned on a cork and visualized under magnifying glass for ulcers. The criteria for scoring of ulcers was as previously reported. [Abdel-Galil et al. Brit. J. Pharmac. Chemotherapy 33:1-14 (1968)].
1 Petechial hemmorhage or pin point ulcer
3 Many ulcers, a few large
4 Many ulcers, mainly large
Control animals treated with indomethacin but not test compound consistently give scores of about 3.0-3.5. Control animals treated with neither indomethacin nor test compound give scores of about 0.5-0.8. Compounds producing a score of 2.5 or lower are considered to be active.

gastric acid secretion = gastric acid secretion inhibition, "Shay rat" procedure; format: in vivo, rats (male, CFE strain); conditions: intraduodenal dose 100 mg./kg. of body weight; 20% or more considered active
Method: The novel compounds of the present invention are also effective inhibitors of gastric acid secretion and of ulcer development in experimental animals, and thus are potentially valuable as agents for the control of gastric acid secretion and of gastric erosion and an anti-ulcer agents. Gastric acid secretion inhibitory action is usually measured by the "Shay rat" procedure^(1,2) with some modifications as follows.
The rats (male, CFE strain) were starved for 48 hours (water was given ad libitum) to permit evacuation of stomach contents. On the morning of the experiment, under ether anesthesia, the abdominal region was shaved and a midline incision (1-1 1/2") was made with a scapel. […]
The abdominal cavity was exposed by cutting with scissors and the esophagus close to the stomach was clamped off with a hemostat, the stomach was removed by cutting above the hemostat (the esophagus was cut) and between the two sutures. […] The supernatant was collected, volume measured and recorded, 2 drops of a phenolphthalein indicator (1% in 95% ethanol) were added and the solution was titrated with 0.02N NaOH (or with 0.04N NaOH when large volumes of stomach contents were encountered) to pH 8.4 (because of usual coloring of the stomach contents, phenolphthalein was only used to permit visual indication that the end point was near) and the amount of acid present was calculated. […]

[2] = total oral dose 25 mg./kg., control score 3.2

With `CCCCCC(O)/C=C/[C@H]1CCC(=O)[C@]1(C)CCCCCCC(=O)O` (relative stereo) [8β-methyl-9-oxo-15-hydroxy-13-trans-prostenoic acid] the “Score, Treated” value ([1]; total oral dose 12.5 mg./kg., control score 3.0) was 2.0.
For `CCCCC[C@@H](O)/C=C/[C@H]1CCC(=O)[C@@H]1CCCCSCC(=O)O` (relative stereo) [9-oxo-3-thia-15-epi-hydroxy-13-trans-prostenoic acid], the “Score, Treated” value [1, 2] was 2.3.
`CCCCCC(O)/C=C/[C@H]1CCC(=O)[C@@H]1CCCCC(C)(C)CC(=O)O` (relative stereo) [9-oxo-15-hydroxy-3,3-dimethyl-13-trans-prostenoic acid] was tested, and the “Percent Inhibition of gastric acid secretion” value (gastric acid secretion) was 51%.
`CCCCCC(O)/C=C\[C@H]1CCC(=O)[C@@H]1CCCCCCC(=O)O` (relative stereo) [9-oxo-15-hydroxy-13-cis-prostenoic acid, 15-hydroxy-9-oxo-13-cis-prostenoic acid] was tested, and the “Score, Treated” value ([1]; total oral dose 100 mg./kg., control score 3.0) was 1.3.
For `CCCCCC(O)/C=C/[C@H]1CCC(=O)[C@@H]1CCCCCC(CC)C(=O)O` (relative stereo), the “Score, Treated” value ([1]; total oral dose 50 mg./kg., control score 3.0) was 2.2.
In the case of `CCCCCC(O)/C=C/[C@H]1CCC(=O)[C@@H]1CCCCSCC(=O)O` (relative stereo) [9-oxo-15-hydroxy-3-thia-13-trans-prostenoic acid], the “Score, Treated” value [1, 2] is reported as 1.8.
`CCCCC(CC)C(O)/C=C/[C@H]1CCC(=O)[C@@H]1CCCCCCC(=O)O` (relative stereo) [9-oxo-15-hydroxy-16-ethyl-13-trans-prostenoic acid] was tested, and the “Score, Treated” value [1, 2] was 1.7.
